ChEMBL document CHEMBL3797063, “Evaluation of N-substituent structural variations in opioid receptor profile of LP1” (Bioorg Med Chem, 2016)
Active and inactive are the calls of the source. The rule behind the calls is not given here.

Columns and labels:
Mu-type opioid receptor [1] = target: Mu-type opioid receptor (Rattus norvegicus, UniProt P33535); test: Displacement of [3H]-DPN from rat MOR expressed in EE-HEK293 cell membranes by liquid scintillation counting
[2] = target: Delta-type opioid receptor (Rattus norvegicus, UniProt P33533); test: Displacement of [3H]-DPN from rat DOR expressed in EE-HEK293 cell membranes by liquid scintillation counting
[3] = target: T1, Kappa-type opioid receptor (Homo sapiens, UniProt P41145); test: Displacement of [3H]-DPN from human KOR expressed in EE-HEK293 cell membranes by liquid scintillation counting
Rattus norvegicus = organism: Rattus norvegicus; test: Selectivity index, ratio of Ki for rat DOR to Ki for rat MOR
[4] = Selectivity index, ratio of Ki for human KOR to Ki for rat MOR
Mu-type opioid receptor [5] = target: T2, Mu-type opioid receptor (Cavia porcellus, UniProt P97266); test: Agonist activity at MOR in Dunkin-Hartley guinea pig ileum assessed as inhibition of EFS-induced contractions incubated for 60 mins
[6] = target: T3, Delta-type opioid receptor (Mus musculus, UniProt P32300); test: (§1) Agonist activity at DOR in CD1 mouse vas deferens assessed as inhibition of EFS-induced contractions incubated for 60 mins; type: tissue-based
[7] = target: T3, Delta-type opioid receptor; test: Antagonist activity at DOR in CD1 mouse vas deferens assessed as reduction in DPDPE-induced inhibition of EFS-evoked contractions incubated for 60 mins; type: tissue-based; details: read-out: pA2 (converted)
[8] = target: Delta-type opioid receptor (Mus musculus) (UniProt P32300); test: as §1; type: tissue-based
Mu-type opioid receptor [9] = target: T2, Mu-type opioid receptor; test: Antagonist activity at MOR in Dunkin-Hartley guinea pig ileum assessed as reduction in DAMGO-induced inhibition of EFS-induced contractions incubated for 60 mins; type: tissue-based; details: read-out: pA2 (converted)
[10] = target: T1, Kappa-type opioid receptor; test: Activity at human KOR expressed in EE-HEK293 cells assessed as pEC50 for effect on (-)U50,488H-induced response (reference value: […] +/- […]); type: cell-based
Mus musculus [11] = test: Effect on basal tail flick latencies in Swiss […] mouse at 1 to 15 mg/kg, sc during 90 mins by tail flick test; type: ADME, organism-based; details: in vivo, 1.5 h
Mus musculus [12] = test: Reduction in morphine-induced antinociceptive effect in sc dosed Swiss […] mouse assessed as tail flick latencies dosed 45 mins before 5 mg/kg, sc morphine injection by tail flick test; type: ADME, organism-based; details: in vivo, 0.75 h

Sequence of Delta-type opioid receptor (Rattus norvegicus, UniProt P33533) (P33533 whole entry): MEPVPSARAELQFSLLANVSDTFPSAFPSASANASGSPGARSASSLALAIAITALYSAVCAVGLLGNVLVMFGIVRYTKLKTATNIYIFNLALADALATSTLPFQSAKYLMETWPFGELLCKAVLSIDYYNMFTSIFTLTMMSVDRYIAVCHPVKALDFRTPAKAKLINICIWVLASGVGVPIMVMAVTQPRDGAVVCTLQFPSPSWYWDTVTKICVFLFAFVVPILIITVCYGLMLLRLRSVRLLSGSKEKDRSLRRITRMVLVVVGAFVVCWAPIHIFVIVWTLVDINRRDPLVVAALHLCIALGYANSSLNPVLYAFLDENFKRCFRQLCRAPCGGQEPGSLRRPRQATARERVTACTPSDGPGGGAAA
Sequence of Mu-type opioid receptor (Rattus norvegicus, UniProt P33535) (P33535 whole entry): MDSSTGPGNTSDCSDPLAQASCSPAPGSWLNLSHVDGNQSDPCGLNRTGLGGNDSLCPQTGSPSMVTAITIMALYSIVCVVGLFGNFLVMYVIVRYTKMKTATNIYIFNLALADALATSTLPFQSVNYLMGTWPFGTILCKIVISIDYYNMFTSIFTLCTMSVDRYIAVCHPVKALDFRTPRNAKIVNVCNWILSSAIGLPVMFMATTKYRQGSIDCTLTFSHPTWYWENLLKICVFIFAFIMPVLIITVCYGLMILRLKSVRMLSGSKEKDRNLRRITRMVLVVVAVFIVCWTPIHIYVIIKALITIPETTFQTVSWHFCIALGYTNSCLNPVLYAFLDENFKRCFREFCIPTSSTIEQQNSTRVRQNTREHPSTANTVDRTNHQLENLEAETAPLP
T2 sequence (P97266 whole entry): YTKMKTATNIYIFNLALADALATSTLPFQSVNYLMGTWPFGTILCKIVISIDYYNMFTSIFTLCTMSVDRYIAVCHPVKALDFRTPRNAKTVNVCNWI
T1 sequence (P41145 whole entry): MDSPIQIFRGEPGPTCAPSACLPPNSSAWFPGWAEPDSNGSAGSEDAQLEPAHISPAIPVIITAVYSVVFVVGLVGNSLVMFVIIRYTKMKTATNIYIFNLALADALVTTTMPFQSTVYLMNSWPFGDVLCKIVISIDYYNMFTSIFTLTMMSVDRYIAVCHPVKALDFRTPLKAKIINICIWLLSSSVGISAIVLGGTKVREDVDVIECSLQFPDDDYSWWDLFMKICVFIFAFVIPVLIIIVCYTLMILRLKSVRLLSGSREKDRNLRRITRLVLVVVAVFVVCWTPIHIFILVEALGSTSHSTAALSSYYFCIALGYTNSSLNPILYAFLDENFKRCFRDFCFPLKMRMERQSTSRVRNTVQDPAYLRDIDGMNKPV
T3 sequence (P32300 whole entry): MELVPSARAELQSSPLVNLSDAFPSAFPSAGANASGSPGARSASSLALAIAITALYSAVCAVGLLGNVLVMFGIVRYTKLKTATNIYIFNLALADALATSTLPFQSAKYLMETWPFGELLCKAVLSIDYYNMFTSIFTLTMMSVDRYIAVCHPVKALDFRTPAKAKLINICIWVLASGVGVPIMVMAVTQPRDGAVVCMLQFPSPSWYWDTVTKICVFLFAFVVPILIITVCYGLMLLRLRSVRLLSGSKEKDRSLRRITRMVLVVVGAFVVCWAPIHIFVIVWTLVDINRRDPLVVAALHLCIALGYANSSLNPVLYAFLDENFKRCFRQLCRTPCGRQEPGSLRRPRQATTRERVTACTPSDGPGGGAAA
Sequence of Delta-type opioid receptor (Mus musculus) (P32300 whole entry): as above

| SMILES | Ki (Mu-type opioid receptor [1]) [nM] | Ki [2] [nM] | Ki [3] [nM] | Ratio Ki (Rattus norvegicus) | Ratio Ki [4] | EC50 (Mu-type opioid receptor [5]) [nM] | EC50 [6] [nM] | Kb [7] [nM] | Activity [8] | Kb (Mu-type opioid receptor [9]) [nM] | EC50 [10] [nM] | Activity (Mus musculus [11]) | AD50 (Mus musculus [12]) [mg/kg] | Activity (Mus musculus [12]) |
| --- | --- | --- | --- | --- | --- | --- | --- | --- | --- | --- | --- | --- | --- | --- |
| C[C@H]1[C@H]2Cc3ccc(O)cc3[C@]1(C)CCN2CCC(=O)Nc1cccc2ncccc12 | 3190 | 310 | 1540 | 0.1 | 0.5 | – | – | – | – | – | – | – | – | – |
| C[C@@H](NC(=O)[C@@H](N)Cc1ccc(O)cc1)C(=O)NCC(=O)N(C)[C@@H](Cc1ccccc1)C(=O)NCCO [DAMGO] | – | – | – | – | – | 158 | – | – | – | – | – | – | – | – |
| C[C@H]1[C@H]2Cc3ccc(O)cc3[C@]1(C)CCN2CCC(=O)Nc1cnc2ccccc2c1 | 1190 | 740 | 6470 | 0.62 | 5.4 | – | – | – | – | – | – | – | – | – |
| C[C@H]1[C@H]2Cc3ccc(O)cc3[C@]1(C)CCN2CCC(=O)Nc1cccc2cnccc12 | 50 | 180 | 2900 | 3.6 | 58 | 20000 | 158000 | – | – | – | – | – | – | – |
| C[C@H]1[C@H]2Cc3ccc(O)cc3[C@]1(C)CCN2CCC(=O)Nc1ccccc1 | – | – | – | 0.67 | 153 | 794 | – | 63.1 | inactive | – | – | – | – | – |
| C[C@H]1[C@H]2Cc3ccc(O)cc3[C@]1(C)CCN2CCC(=O)Nc1cccc2ccccc12 | 38 | 210 | 800 | 5.5 | 21.1 | – | – | 25.1 | inactive | 2.51 | 10000 | Non-toxic | 2 | Dose-dependent effect |
| C[C@H]1[C@H]2Cc3ccc(O)cc3[C@]1(C)CCN2CCC(=O)Nc1ccc2ncccc2c1 | 4560 | 330 | 4400 | 0.07 | 1 | – | – | – | – | – | – | – | – | – |
| C[C@H]1[C@H]2Cc3ccc(O)cc3[C@]1(C)CCN2CCC(=O)Nc1cccc2cccnc12 | 3410 | 540 | 230 | 0.16 | 0.07 | – | – | – | – | – | – | – | – | – |
